For the test, the target named is GST-Bcl-2 (Homo sapiens (Human), UniProt P10415). The experiment in a line: Time Resolved-Fluorescence Resonance Energy Transfer (TR-FRET) Bcl-2 binding assay. Particulars: GST-Bcl-2 1 nM, F-Bak peptide probe 100 nM, Tb-anti-GST antibody 1 nM; Ki by Wang's equation. The method, boiled down:
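Competition TR-FRET: GST-Bcl-2 with fluorescent Bak peptide probe and Tb-anti-GST antibody, compounds serially diluted from 50 μM (2× start, 10% DMSO).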
Background: Time-resolved FRET reads energy transfer from a long-lived donor to a nearby acceptor.

Data on 19 molecules can be found in patent US8952157B2, “Apoptosis-inducing agents for the treatment of cancer and immune and autoimmune diseases” (AbbVie Inc., priority 2008, dated 2015).

Bounds are passed on as bounds.

Chain of GST-Bcl-2 (P10415 whole entry): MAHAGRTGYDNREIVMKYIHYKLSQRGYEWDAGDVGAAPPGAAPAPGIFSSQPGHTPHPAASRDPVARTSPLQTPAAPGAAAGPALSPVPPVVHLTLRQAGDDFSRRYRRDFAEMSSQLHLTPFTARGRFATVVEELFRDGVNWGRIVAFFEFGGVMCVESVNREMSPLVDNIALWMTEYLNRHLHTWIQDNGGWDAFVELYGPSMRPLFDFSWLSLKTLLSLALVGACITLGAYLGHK

Molecule `CN(C)CCCNc1ccc(S(=O)(=O)NC(=O)c2ccc(N3CCN(Cc4ccccc4-c4ccc(Cl)cc4)CC3)cc2Oc2cccc(CO)c2)cc1[N+](=O)[O-]` [Example 107, 4-(4-((4′-chloro-1,1′-biphenyl-2-yl)methyl)piperazin-1-yl)-N-((4-((3-(dimethylamino)propyl)amino)-3-nitrophenyl)sulfonyl)-2-(3-(hydroxymethyl)phenoxy)benzamide] had a Ki of 331 pM. This lies in the sub-nanomolar range. Take `CC1(C)CCC(CN2CCN(c3ccc(C(=O)NS(=O)(=O)c4ccc(NCCCN5CCNC(=O)C5)c([N+](=O)[O-])c4)c(Oc4cc5cc[nH]c5cc4F)c3)CC2)=C(c2ccc(Cl)cc2)C1` [Example 233, 4-(4-{[2-(4-chlorophenyl)-4,4-dimethylcyclohex-1-en-1-yl]methyl}piperazin-1-yl)-2-[(6-fluoro-1H-indol-5-yl)oxy]-N-[(3-nitro-4-{[3-(3-oxopiperazin-1-yl)propyl]amino}phenyl)sulfonyl]benzamide]: affinity was put at a Ki of 37 pM. In the case of `CN1CCN(CCCNc2ccc(S(=O)(=O)NC(=O)c3ccc(N4CCN(CC5=C(c6ccc(Cl)cc6)CC(C)(C)CC5)CC4)cc3Oc3cccc(Cl)c3)cc2[N+](=O)[O-])CC1` [Example 143, 2-(3-chlorophenoxy)-4-(4-{[2-(4-chlorophenyl)-4,4-dimethylcyclohex-1-en-1-yl]methyl}piperazin-1-yl)-N-[(4-{[3-(4-methylpiperazin-1-yl)propyl]amino}-3-nitrophenyl)sulfonyl]benzamide] it was 53 pM.

Turning to `CN(C)CCCNc1ccc(S(=O)(=O)NC(=O)c2ccc(N3CCN(CC4=C(c5ccc(Cl)cc5)CC(C)(C)CC4)CC3)cc2Oc2ccccc2Cl)cc1[N+](=O)[O-]` [Example 179, 2-(2-chlorophenoxy)-4-(4-{[2-(4-chlorophenyl)-4,4-dimethylcyclohex-1-en-1-yl]methyl}piperazin-1-yl)-N-[(4-{[3-(dimethylamino)propyl]amino}-3-nitrophenyl)sulfonyl]benzamide], the inhibition constant Ki is 36 pM. The Ki values of the last two molecules are within 1.5-fold of each other.

In turn, `CC1(C)CCC(CN2CCN(c3ccc(C(=O)NS(=O)(=O)c4ccc(NCC5CCOCC5)c([N+](=O)[O-])c4)c(Oc4ccc(NS(C)(=O)=O)nc4)c3)CC2)=C(c2ccc(Cl)cc2)C1` [Example 356, 4-(4-{[2-(4-chlorophenyl)-4,4-dimethylcyclohex-1-en-1-yl]methyl}piperazin-1-yl)-2-({6-[(methylsulfonyl)amino]pyridin-3-yl}oxy)-N-({3-nitro-4-[(tetrahydro-2H-pyran-4-ylmethyl)amino]phenyl}sulfonyl)benzamide] came in with an inhibition constant (Ki) of 2820 pM. Against the preceding molecule, the Ki is about 78-fold higher.

Molecule `CNc1cccc(Oc2cc(N3CCN(Cc4ccccc4-c4ccc(Cl)cc4)CC3)ccc2C(=O)NS(=O)(=O)c2ccc(NCC3CCOCC3)c([N+](=O)[O-])c2)c1` [Example 2, 4-(4-((4′-chloro-1,1′-biphenyl-2-yl)methyl)piperazin-1-yl)-2-(3-(methylamino)phenoxy)-N-((3-nitro-4-((tetrahydro-2H-pyran-4-ylmethyl)amino)phenyl)sulfonyl)benzamide] came in with a Ki of 31500 pM. Turning to `CN(C)CCCNc1ccc(S(=O)(=O)NC(=O)c2ccc(N3CCN(CC4=C(c5ccc(Cl)cc5)CC(C)(C)CC4)CC3)cc2Oc2cccc(Cl)c2)cc1[N+](=O)[O-]` [Example 142, 2-(3-chlorophenoxy)-4-(4-{[2-(4-chlorophenyl)-4,4-dimethylcyclohex-1-en-1-yl]methyl}piperazin-1-yl)-N-[(4-{[3-(dimethylamino)propyl]amino}-3-nitrophenyl)sulfonyl]benzamide], affinity was put at a Ki of 71 pM. To `CC1(C)CCC(CN2CCN(c3ccc(C(=O)NS(=O)(=O)c4ccc(NC5CCN(CCCc6ccccc6)CC5)c([N+](=O)[O-])c4)c(Oc4cccc(Cl)c4)c3)CC2)=C(c2ccc(Cl)cc2)C1` [Example 172, 2-(3-chlorophenoxy)-4-(4-{[2-(4-chlorophenyl)-4,4-dimethylcyclohex-1-en-1-yl]methyl}piperazin-1-yl)-N-[(3-nitro-4-{[1-(3-phenylpropyl)piperidin-4-yl]amino}phenyl)sulfonyl]benzamide] belongs 549 pM; to `CC1(C)CCC(CN2CCN(c3ccc(C(=O)NS(=O)(=O)c4ccc(NCCN5CCOCC5)c([N+](=O)[O-])c4)c(Oc4cccc(Cl)c4F)c3)CC2)=C(c2ccc(Cl)cc2)C1` [Example 150, 2-(3-chloro-2-fluorophenoxy)-4-(4-{[2-(4-chlorophenyl)-4,4-dimethylcyclohex-1-en-1-yl]methyl}piperazin-1-yl)-N-({4-[(2-morpholin-4-ylethyl)amino]-3-nitrophenyl}sulfonyl)benzamide], 759 pM. To `CC1(C)CCC(CN2CCN(c3ccc(C(=O)NS(=O)(=O)c4ccc(NC5CCN(C6COC6)CC5)c([N+](=O)[O-])c4)c(Oc4cnc(N)c(Cl)c4)c3)CC2)=C(c2ccc(Cl)cc2)C1` [Example 364, 2-[(6-amino-5-chloropyridin-3-yl)oxy]-4-(4-{[2-(4-chlorophenyl)-4,4-dimethylcyclohex-1-en-1-yl]methyl}piperazin-1-yl)-N-({3-nitro-4-[(1-oxetan-3-ylpiperidin-4-yl)amino]phenyl}sulfonyl)benzamide] belongs 14 pM. In the case of `CC1(C)CCC(CN2CCN(c3ccc(C(=O)NS(=O)(=O)c4ccc(NC5CCN(C6CCOCC6)CC5)c([N+](=O)[O-])c4)c(Oc4ccc(O)cc4Cl)c3)CC2)=C(c2ccc(Cl)cc2)C1` [Example 216, 2-(2-chloro-4-hydroxyphenoxy)-4-(4-{[2-(4-chlorophenyl)-4,4-dimethylcyclohex-1-en-1-yl]methyl}piperazin-1-yl)-N-({3-nitro-4-[(1-tetrahydro-2H-pyran-4-ylpiperidin-4-yl)amino]phenyl}sulfonyl)benzamide] it was 27 pM; in that of `Nc1ccc(Oc2cc(N3CCN(Cc4ccccc4-c4ccc(Cl)cc4)CC3)ccc2C(=O)NS(=O)(=O)c2ccc(NCC3CCOCC3)c([N+](=O)[O-])c2)cc1` [Example 18, 2-(4-aminophenoxy)-4-(4-((4′-chloro-1,1′-biphenyl-2-yl)methyl)piperazin-1-yl)-N-((3-nitro-4-((tetrahydro-2H-pyran-4-ylmethyl)amino)phenyl)sulfonyl)benzamide], 2490 pM; in that of `CC1(C)CCC(CN2CCN(c3ccc(C(=O)NS(=O)(=O)c4ccc(NCC5CCOCC5)c([N+](=O)[O-])c4)c(Oc4cnc(N)c(Cl)c4)c3)CC2)=C(c2ccc(Cl)cc2)C1` [Example 318, 2-[(6-amino-5-chloropyridin-3-yl)oxy]-4-(4-{[2-(4-chlorophenyl)-4,4-dimethylcyclohex-1-en-1-yl]methyl}piperazin-1-yl)-N-({3-nitro-4-[(tetrahydro-2H-pyran-4-ylmethyl)amino]phenyl}sulfonyl)benzamide], less than 10 pM. The molecule `CN1CCC(Nc2ccc(S(=O)(=O)NC(=O)c3ccc(N4CCN(CC5=C(c6ccc(Cl)cc6)CC(C)(C)CC5)CC4)cc3Oc3cc4cc[nH]c4c(F)c3F)cc2[N+](=O)[O-])CC1` [Example 200, 4-(4-{[2-(4-chlorophenyl)-4,4-dimethylcyclohex-1-en-1-yl]methyl}piperazin-1-yl)-2-[(6,7-difluoro-1H-indol-5-yl)oxy]-N-({4-[(1-methylpiperidin-4-yl)amino]-3-nitrophenyl}sulfonyl)benzamide] came in with a Ki of 81 pM. In other words, the picomolar range. To `CN1CCC(Nc2ccc(S(=O)(=O)NC(=O)c3ccc(N4CCN(CC5=C(c6ccc(Cl)cc6)CC(C)(C)C5)CC4)cc3Oc3ccccc3Cl)cc2[N+](=O)[O-])CC1` [Example 62, 2-(2-chlorophenoxy)-4-(4-((2-(4-chlorophenyl)-4,4-dimethylcyclopent-1-en-1-yl)methyl)piperazin-1-yl)-N-((4-((1-methylpiperidin-4-yl)amino)-3-nitrophenyl)sulfonyl)benzamide] belongs 227 pM; to `CC1(C)CCC(CN2CCN(c3ccc(C(=O)NS(=O)(=O)c4ccc(NCC5CCOCC5)c([N+](=O)[O-])c4)c(Oc4ccc(NCC(F)F)nc4)c3)CC2)=C(c2ccc(Cl)cc2)C1` [Example 376, 4-(4-{[2-(4-chlorophenyl)-4,4-dimethylcyclohex-1-en-1-yl]methyl}piperazin-1-yl)-2-({6-[(2,2-difluoroethyl)amino]pyridin-3-yl}oxy)-N-({3-nitro-4-[(tetrahydro-2H-pyran-4-ylmethyl)amino]phenyl}sulfonyl)benzamide], 57700 pM. Molecule `CC1(C)CCC(CN2CCN(c3ccc(C(=O)NS(=O)(=O)c4ccc(N[C@@H]5CCN(C6CC6)C5)c([N+](=O)[O-])c4)c(Oc4cnc(N)c(Cl)c4)c3)CC2)=C(c2ccc(Cl)cc2)C1` [Example 370, 2-[(6-amino-5-chloropyridin-3-yl)oxy]-4-(4-{[2-(4-chlorophenyl)-4,4-dimethylcyclohex-1-en-1-yl]methyl}piperazin-1-yl)-N-[(4-{[(3R)-1-cyclopropylpyrrolidin-3-yl]amino}-3-nitrophenyl)sulfonyl]benzamide] had a Ki of less than 10 pM. To `CC1(C)CCC(CN2CCN(c3ccc(C(=O)NS(=O)(=O)c4ccc(NCC5CCOCC5)c([N+](=O)[O-])c4)c(Oc4cccc5[nH]cc(Cl)c45)c3)CC2)=C(c2ccc(Cl)cc2)C1` [Example 266, 2-[(3-chloro-1H-indol-4-yl)oxy]-4-(4-{[2-(4-chlorophenyl)-4,4-dimethylcyclohex-1-en-1-yl]methyl}piperazin-1-yl)-N-({3-nitro-4-[(tetrahydro-2H-pyran-4-ylmethyl)amino]phenyl}sulfonyl)benzamide] belongs 810 pM; to `CN1CCC(Nc2ccc(S(=O)(=O)NC(=O)c3ccc(N4CCN(CC5=C(c6ccc(Cl)cc6)CC(C)(C)CC5)CC4)cc3Oc3cccc(O)c3Cl)cc2[N+](=O)[O-])CC1` [Example 171, 2-(2-chloro-3-hydroxyphenoxy)-4-(4-{[2-(4-chlorophenyl)-4,4-dimethylcyclohex-1-en-1-yl]methyl}piperazin-1-yl)-N-({4-[(1-methylpiperidin-4-yl)amino]-3-nitrophenyl}sulfonyl)benzamide], 66 pM.

For orientation: Ki means the dissociation constant of the complex between target and ligand, obtained from inhibition or displacement. Read a high Ki as a looser hold on the target.
